In data set [1] the test system is ERK1/2. The experiment in a line: ERK1/2 phosphorylation immunoblot in TCC-Sup cells. The data set is classed as cell-based, human. The conditions noted are these: AG1478 250 nM, BB94 10 μM, Crm197 10 μg/mL, FIG. 6A. Here is the method: (§1) FIG. 6. MAPK activation in response to stress agents and blockade of EGFR, metalloprotease and HB-EGF function. (A) Cos-7 cells transiently transfected with pcDNA3-HA-ERK2, TCC-Sup and NCI-H292 cells were pre-treated with AG1478 (250 nM), BB94 (10 μM), Crm197 (10 μg/mL) or an equal volume of empty vehicle (DMSO) for 20 min and stimulated with 0.3 M sorbitol or 200 μM hydrogen peroxide for 30 min. After cell lysis total lysates were immunoblotted with anti-phospho-ERK antibody, followed by reprobing of the same membranes with polyclonal anti-ERK antibody. Quantitative analysis of ERK phosphorylation from three independent experiments (mean[…]s.d.) using the FUJI LAS1000 imaging system. (B) Cos-7 and NCI-H292 cell were treated as described under (A). After lysis, JNK was immunoprecipitated using an anti-JNK antibody, and JNK activity was assayed using GST-c-JUN fusion protein as a substrate. Phosphorylated GST-c-JUN was visualized by autoradiography and JNK was immunoblotted in parallel using polyclonal JNK antibody. Quantitative analysis of GST-c-JUN phosphorylation from three independent experiments (mean[…]s.d.) using the FUJI LAS1000 imaging system. TCC-Sup cells were treated as described under (A). […]
(§2) Cells were lysed and proteins immunoprecipitated as described before (Daub et al., 1997). […] Phosphotyrosine was detected with the 4G10 monoclonal antibody (UBI, Lake Placid, N.Y.). […]
(In general: A western blot detects proteins with antibodies after separation by electrophoresis.)

The subject of the next data set is p38. The experiment in a line: p38 phosphorylation immunoblot in Cos-7 cells. The data set is classed as cell-based. The conditions noted are these: AG1478 250 nM 20 min, 0.3 M sorbitol or 200 μM hydrogen peroxide, FIG. 2A. Here is the method: FIG. 2. p38 mediates stress-induced EGFR phosphorylation. (A) Time-coure of p38 phosphorylation dependent on EGFR kinase function. Cos-7 cells were pretreated with AG1478 (250 nM) or an equal volume of empty vehicle (DMSO) for 20 min and stimulated with 0.3 M sorbitol or 200 μM hydrogen peroxide for the indicated periods. Cell extracts were immunoblotted with anti-phospho-p38 antibody and reprobing of the same filters with polyclonal anti-p38 antibody. (B) Stress-induced EGFR activation depends on p38 but not ERK activity in Cos-7 cells. Cos-7 cells were pre-treated with PD98059 (50 μM), SB202190 (10 μM) or an equal volume of empty vehicle (DMSO) for 30 min and stimulated with 0.3 M sorbitol and 200 μM hydrogen peroxide for 10 min and the GPCR agonist LPA (10 μM) or EGF (2 ng/mL) for 3 min as positive controls. Cell extracts were assayed for EGFR tyrosine phosphorylation content. (C) Stress-induced EGFR activation depends on p38 activity in TCC-Sup carcinoma cells. […]
FIG. 6. […] Quantitative analysis of ERK phosphorylation from three independent experiments (mean[…]s.d.) using the FUJI LAS1000 imaging system. […] Quantitative analysis of GST-c-JUN phosphorylation from three independent experiments (mean[…]s.d.) using the FUJI LAS1000 imaging system. […]

Data set [2] deals with ERK1/2. The experiment in a line: ERK1/2 phosphorylation immunoblot in NCI-H292 cells. It is filed as cell-based, human. The conditions noted are these: AG1478 250 nM, BB94 10 μM, Crm197 10 μg/mL, FIG. 6A. The protocol: as §1, §2
In data set [3] the test system is ERK1/2. The experiment in a line: ERK1/2 phosphorylation immunoblot in Cos-7 cells (pcDNA3-HA-ERK2). The data set is classed as cell-based. The conditions noted are these: AG1478 250 nM, BB94 10 μM, Crm197 10 μg/mL 20 min, stimulated 30 min, FIG. 6A. The protocol:
as §1, §2

Data set [4] concerns EGFR. The experiment in a line: EGFR tyrosine phosphorylation (IP/immunoblot) in NCI-H292 lung carcinoma cells. It is filed as cell-based, human. The conditions noted are these: for stress-induced EGFR activation upon siRNA transfection: 0.3 M sorbitol or 200 μM hydrogen peroxide 10 min.
The subject of data set [5] is EGFR. The experiment in a line: EGFR tyrosine phosphorylation (IP/immunoblot) in Cos-7 cells. The conditions noted are these: for stress-induced EGFR activation: pre-treated 30 min with SB202190 10 μM or PD98059 50 μM, 0.3 M sorbitol or 200 μM hydrogen peroxide 10 min; for EGFR activation by oxidative stress: Src inhibitors, unpublished data; for EGFR activation after sorbitol or hydrogen peroxide upon siRNA transfection: both stress stimuli, 10 min, FIG. 5B. It is filed as cell-based.

In data set [6] the target is epidermal growth factor receptor (EGFR) (UniProt P00533). The experiment in a line: cell-based or functional assay.
A further data set has as its system ADAM9. The experiment in a line: RNA interference, gene expression by RT-PCR in NCI-H292 cells. The data set is classed as cell-based, human. The conditions noted are these: 2 days after transfection, FIG. 5A. The protocol: (§3) FIG. 5. Effect of siRNAs against different ADAM proteins on stress-induced EGFR phosphorylation. (A) Blockade of ADAM metalloprotease expression by RNA interference (RNAi). NCI-H292 cells were transfected with siRNA against ADAM9, ADAM10 or ADAM15, cultured for 2 days and analyzed for gene expression by RT-PCR as indicated. (B) Cos-7 cells were transfected with siRNAs against ADAM9, -10, -12, -15 and -17, serum-starved for 24 hours, stimulated with 0.3 M sorbitol or 200 μM hydrogen peroxide for 10 min and assayed for EGFR tyrosine phosphorylation content. (C)NCI-H292 cells were treated as described under (B).
(§4) Transfection of 21-nucleotide siRNA duplexes (Dharmacon Research, Lafayette, Colo., USA) for targeting endogenous genes was carried out using Oligofectamine (Invitrogen) for NCI-H292 cells and 4.2 μg siRNA duplex per 6-well plate as previously described (Elbashir et al., 2001). Cos-7 cells were transfected using Lipofectamine 2000 (Invitrogen) according to the manufacturer's protocol. Briefly, 8.4 μg siRNA duplex per 6 cm dish were incubated with 10 μL Lipofectamine 2000 in 1 mL serum-free medium for 20 minutes. The transfection mixture was added to the cell culture medium containing serum and, after 6 h, cells were washed and incubated in medium containing serum overnight. NCI-H292 and Cos-7 cells were serum-starved and assayed 2 d after transfection. Highest efficiencies in silencing target genes were obtained by using mixtures of siRNA duplexes targeting different regions of the gene of interest. Sequences of siRNA used were
(§5) Specific silencing of targeted genes was confirmed by RT-PCR analysis. RNA isolated using RNeasy Mini Kit (Qiagen, Hilden, Germany) was reverse transcribed using AMV Reverse Transcriptase (Roche, Mannheim, Germany). PuReTaq Ready-To-Go PCR Beads (Amersham Biosciences, Piscataway, N.J.) were used for PCR amplification. Primers (Sigma Ark, Steinheim, Germany) were
(§6) PCR products were subjected to electrophoresis on a 2.5% agarose gel and DNA was visualized by ethidium bromide staining.

A further data set has as its system ADAM10. The data set is described as above. The data set is classed as cell-based, human. The conditions noted are these: 2 days after transfection, FIG. 5A. The protocol: as §3, §4, §5, §6
Another data set concerns ADAM15. The description is as above. It is filed as cell-based, human. The conditions noted are these: 2 days after transfection, FIG. 5A. Here is the method:
as §3, §4, §5, §6

With `COc1cc2ncnc(Nc3cccc(Cl)c3)c2cc1OC` [AG1478], the “hyperosmolarity and oxidative stress-induced ERK1/2 activation” value in the data set with ERK1/2 [1] and in the data set on ERK1/2 [2] was “substantially blocked” in each case. In addition, the “p38 phosphorylation in response to stress agents” value in the data set with p38 is reported as “did not affect”. Further, the “sorbitol and hydrogen peroxide-induced activation of ERK1/2” value in the data set with ERK1/2 [3] was “blocked”.

For `CNC(=O)[C@H](Cc1ccccc1)NC(=O)[C@H](CC(C)C)[C@H](CSc1cccs1)C(=O)NO` [BB94, Batimastat], in the data set with EGFR [4] (BB94 10 μM 20 min, sorbitol 0.3 M or hydrogen peroxide 200 μM 10 min, printed 'inhibited ... to 50%'), the “inhibition of stress-induced EGFR activation” value worked out at 50%. Regarding `COc1cccc(-c2cc(=O)c3ccccc3o2)c1N` [PD98059], the “stress-induced EGFR activation” value in the data set with EGFR [5] (FIG. 2B) was “did not affect”. Consider `Cc1ccc(-c2nn(C(C)(C)C)c3ncnc(N)c23)cc1` [PP1], for which, in the data set on EGFR [5], the “EGFR activation by oxidative stress” value was “did not achieve specific inhibition”.

As for `CC(C)(C)n1nc(-c2ccc(Cl)cc2)c2c(N)ncnc21` [PP2], the “EGFR activation by oxidative stress” value in the data set with EGFR [5] was “did not achieve specific inhibition”.

Turning to `Oc1ccc(-c2nc(-c3ccncc3)c(-c3ccc(F)cc3)[nH]2)cc1` [SB202190], the EGF-induced receptor phosphorylation entry in the data set on EGFR [5] (SB202190 10 μM 30 min, EGF 2 ng/mL 3 min, FIG. 2B) is reported as “unaffected”. The LPA-induced receptor phosphorylation entry in the data set on EGFR [5] (SB202190 10 μM 30 min, LPA 10 μM 3 min, FIG. 2B) is “unaffected”. For the same molecule, the “stress-induced EGFR activation” value with EGFR [5] (FIG. 2B) is reported as “completely abrogated”. On to “HB-EGF (from UniProt Q99075 20-208) (ligand)”, for which the JNK activity in response to oxidative stress (Cos-7 cells; kinase assay with GST-c-JUN) in [6] came out at 50%.

For “siRNA against ADAM9: mixture of 21-nucleotide siRNA duplexes, SEQ ID NO 1 and 2, targeting ADAM9 (chain 1 AAUCACUGUGGAGACAUUUGCTT; chain 2 AAACUUCCAGUGUGUAGAUGCTT; chemistry not fully specified)”, in the data set with ADAM9, the “knockdown of target gene expression (ADAM9)” value was “efficient and specific knockdown”. Further, in the data set on EGFR [4] (FIG. 5C), the “stress-induced EGFR activation upon siRNA transfection” value is listed as “participate in the stress response”.

In the case of “siRNA against ADAM10: mixture of 21-nucleotide siRNA duplexes, SEQ ID NO 3 and 4, targeting ADAM10 (chain 1 AAUGAAGAGGGACACUUCCCUTT; chain 2 AAGUUGCCUCCUCCUAAACCATT; chemistry not fully specified)”, the “knockdown of target gene expression (ADAM10)” value in the data set with ADAM10 is “efficient and specific knockdown”. For the same molecule, in the data set on EGFR [5], the “EGFR activation after sorbitol or hydrogen peroxide upon siRNA transfection” value is given as “involved in EGFR activation”.

Take “siRNA against ADAM12: mixture of siRNA duplexes, SEQ ID NO 5 and 6, targeting ADAM12 (chain 1 AACCUCGCUGCAAAGAAUGUGTT; chain 2 AAGACCUUGATACGACUGCUGTT; chemistry not fully specified)”: the “EGFR activation upon siRNA transfection, hydrogen peroxide treatment only” value with EGFR [4] (200 μM hydrogen peroxide, FIG. 5C) is “participate in the stress response”. On to “siRNA against ADAM15: mixture of siRNA duplexes, SEQ ID NO 7 and 8, targeting ADAM15 (chain 1 AACUCCAUCUGUUCUCCUGACTT; chain 2 AAAUUGCCAGCUGCGCCCGUCTT; chemistry not fully specified)”, for which the “knockdown of target gene expression (ADAM15)” value with ADAM15 is “efficient and specific knockdown”.

B1: siRNA against ADAM17: mixture of siRNA duplexes, SEQ ID NO 9 to 11, targeting ADAM17 (nucleic acid)
chain 1: AAAGUUUGCUUGGCACACCUUTT
chain 2: AAGUAAGGCCCAGGAGUGUUTT
chain 3: AACAUAGAGCCACUUUGGAGATT
modifications: chemistry not fully specified
On to B1, for which the “EGFR activation after sorbitol or hydrogen peroxide upon siRNA transfection” value in the data set with EGFR [5] is “involved in EGFR activation”. In addition, in the data set on EGFR [4] (FIG. 5C), the “stress-induced EGFR activation upon siRNA transfection” value is reported as “involved in stress-induced EGFR activation”.

Source of the values: patent US20060148694A1, “Inhibition of stress-induced ligand-dependent egfr activation” (Max-Planck-Gesellschaft zur Foerderung der Wessenschaften. …, priority 2003, published 2006).
